The source of these data is patent US3975433A, “1-(2,4-Dimethoxy-phenyl)-3-(2-hydroxyethyl)thiourea” (The Dow Chemical Company, priority 1975, dated 1976).

For one experiment, the system named is Ascaridia galli. The experiment can be described thus: control of Ascaridia galli in chickens (anthelmintic efficacy). It is filed as in vivo. Conditions: infected chickens; for activity in controlling Ascaridia: tested as controls, result in words, dose not separately stated. As for the experimental part:
The compound was evaluated for activity in the control of Ascaridia galli in chickens. The test chickens following infection with Ascaridia are held for at least 30 days to permit all worms to mature. The compound is evaluated for activity in two chickens which are caged together. The compound may be administered orally as a single oral dose or in the feed for four consecutive days. Anthelmintic efficacy of the compound against Ascaridia is determined by comparing the number of ascarids passed in the feces during the first 72 hours post treatment to the number of worms recovered at necropsy.
The following compounds were also tested as controls and found to have no activity in controlling Ascaridia: 1-(4-methoxyphenyl)-3-(2-hydroxyethyl)thiourea; 1-(2,4-dimethylphenyl)-3-(2-hydroxyethyl)thiourea; 1-(4-methylphenyl)-3-(2-hydroxyethyl)thiourea; and 1-(4-methoxy-2-methylphenyl)-3-(2-hydroxyethyl)thiourea.

In another experiment the test system is reserpine-induced ptosis. The experiment in a line: counteraction of reserpine-induced ptosis in mice (antidepressant properties). The settings on record: for inhibition of reserpine-induced ptosis: mice, 60 mg/kg (i.p.), comparative trials, result in words. It is filed as in vivo. The procedure: The antidepressant properties of the thiourea employed in the methods of the present invention are determined by measuring their ability to counteract ptosis induced in animals by the intraperitoneal injection of reserpine. Graded doses (from about 2.1 to about 100 mg/kg) of the active compounds of this invention are administered intraperitoneally to groups of five mice each, followed 30 minutes later by an intraperitoneal injection of reserpine in an amont which is known to induce ptosis in mice. Similar groups of control mice are administered only reserpine. Forty-five minutes after the administration of reserpine, the presence or absence of ptosis is noted. The percent inhibition of ptosis is noted and the median effective dose (ED50) of each test ingredient which protected 50% of the test mice from reserpine-induced ptosis was calculated.

As for `Cc1ccc(NC(=S)NCCO)cc1` [1-(4-methylphenyl)-3-(2-hydroxyethyl)thiourea], in the experiment on Ascaridia galli, the “activity in controlling Ascaridia” value is “no activity”.
As for `COc1ccc(NC(=S)NCCO)cc1OC` [1-(3,4-dimethoxyphenyl)-3-(2-hydroxyethyl)thiourea], in the experiment on reserpine-induced ptosis, the “inhibition of reserpine-induced ptosis” value is recorded as “did not inhibit”.
On the same count and under the same terms, for `COc1ccccc1NC(=S)NCCO` [1-(2-methoxyphenyl)-3-(2-hydroxyethyl)thiourea] the value was “did not inhibit”.
As for `COc1ccc(NC(=S)NCCO)cc1` [1-(4-methoxyphenyl)-3-(2-hydroxyethyl)thiourea], in the experiment with Ascaridia galli, the “activity in controlling Ascaridia” value is given as “no activity”.
Consider `CN(C)CCCN1c2ccccc2CCc2ccccc21` [Imipramine], for which the ED50 (commonly the dose that gives a 50% effect, or the effect in half of the subjects) with reserpine-induced ptosis (Mus musculus, ip, read-out: ED50 (median effective dose which protected 50% of the test mice from reserpine-induced ptosis)) worked out at 15 mg/kg.
As for `COc1ccc(NC(=S)NCCO)c(OC)c1` [Compound 1, 1-(2,4-dimethoxyphenyl)-3-(2-hydroxyethyl)thiourea], the “activity (number of worms passed in the feces compared to those found at autopsy)” value in the experiment with Ascaridia galli (150 mg/kg, feces during first 72 hours post treatment) worked out at 50%.
Regarding `Cc1ccc(NC(=S)NCCO)c(C)c1` [1-(2,4-dimethylphenyl)-3-(2-hydroxyethyl)thiourea], the “activity in controlling Ascaridia” value with Ascaridia galli is recorded as “no activity”.
Same read-out and setting: for `COc1ccc(NC(=S)NCCO)c(C)c1` [1-(4-methoxy-2-methylphenyl)-3-(2-hydroxyethyl)thiourea] the value was “no activity”.
